From US20240173327A1, “NEW TREATMENT” (Verona Pharma PLC, priority 2022, published 2024)

System: patients aged 40-80 years with moderate to severe COPD
Experiment: Multi-centre, randomized, double-blind, placebo-controlled clinical study of nebulised ensifentrine in COPD (FEV1 spirometry)
Assay type: in vivo
Settings: for Average change in baseline FEV1 (AUC)0-12 h at Week 12: 3 mg BID by nebuliser
Procedure: A clinical study was conducted to determine the efficacy of ensifentrine in treating COPD compared with placebo. Ensifentrine was administered by nebuliser at a dose of 3 mg twice daily (BID) for 24 weeks. The study was a multi-centre, randomized, double-blind, parallel-group, placebo-controlled trial with around 800 patients and 5:3 randomization.
The study population included patients aged 40-80 years with moderate to severe COPD (FEV1 30%-70% p.n., FEV1/forced vital capacity (FVC) ratio <0.7, with mMRC≥2). The randomization stratified (a) the use of stable background maintenance LAMA or LABA therapy use (approx. 50%. yes or no) and (b) cigarette smoking (current or former). Inhaled corticosteroid (ICS) maintenance therapy was permitted in up to 20% of patients under certain provisions.
The primary endpoint of the study was change from baseline in average FEV1 area under the curve (AUC)0-12 h post-dose at week 12. Secondary endpoints of the study included: peak FEV1 over 4 hours post-dose at Week 12; morning trough FEV1 at Week 12; and other endpoints including moderate/severe COPD exacerbations frequency over 24 Weeks.
COPD severity is derived as follows: mild: 80%<=FEV1, moderate: 50%<=FEV1<80% predicted, severe: 30%<=FEV1<50% predicted and very severe: FEV1<30% predicted, post bronchodilator dose at Screening.
Baseline FEV1 is the mean of the two measurements taken before study medication on the day of first dosing, i.e. ≤40 minutes and just prior to dosing, both pre-dose on day 1.
Average FEV1 AUC0-12 h is defined as area under the curve over 12 hours of the FEV1, divided by 12 hours.
The investigational product and placebo were provided in 2.5 mL unit dose format in an ampule and administered via a nebuliser.

How did the “Improvement in lung function” value (all subgroups of COPD patients in the study) turn out when `COc1cc2c(cc1OC)-c1c/c(=N\c3c(C)cc(C)cc3C)n(CCNC(N)=O)c(=O)n1CC2` [Ensifentrine, N-(2-{(2E)-9,10-dimethoxy-4-oxo-2-[(2,4,6-trimethylphenyl)imino]-6,7-dihydro-2H-pyrimido[6,1-a]isoquinolin-3(4H)-yl}ethyl)urea] was run?
The value was “statistically significant”.

What about the “Improving lung function in moderate COPD” value (moderate COPD patients) of the same compound?
Its value is “particularly effective”.

What about the “Average change in baseline FEV1 (AUC)0-12 h at Week 12” value (patients with moderate COPD) of the same compound?
The value was 139 mL.

And the “Average change in baseline FEV1 (AUC)0-12 h at Week 12” value (patients with severe COPD)?
Its value is 45 mL.
